In article PMC9032385, “A2A Adenosine Receptor Antagonists: Are Triazolotriazine and Purine Scaffolds Interchangeable?” (Molecules, 2022):

Test system: BV-2 murine microglial cells
Test: NO production (Griess assay) in LPS-activated BV-2 cells
Format: cell-based
Settings: then 100 ng/mL LPS for 24 h
Protocol: To determine the effects of 13 on LPS-induced inflammatory mediators, we initially evaluated the production of NO. BV-2 cells were treated with different concentrations of 13, then, were exposed to 100 ng/mL LPS for 24 h, and the release of NO in the culture medium was measured by Griess assay (Figure 4B).
Cell Cultures and Treatments: BV-2 murine microglial cells (a gift from Prof. Elisabetta Blasi of the University of Modena and Reggio Emilia, Modena, Italy) were maintained at 37 °C and 5% CO2 in a humidified incubator and grown in DMEM supplemented with 10% (v/v) low-endotoxin fetal bovine serum (Euroclone—Milan, Italy), 2 mM L-glutamine, 50 U/mL penicillin, and 50 μg/mL streptomycin (Sigma-Aldrich–Merck, Milan, Italy). […]
Measurement of NO Production: The amount of nitrite accumulation in the culture medium of BV-2 cells was measured using Griess reagent. […] The NO concentration was evaluated by measuring the absorbance at 540 nm with a 96-well microplate spectrophotometer (VICTOR3 V Multilabel Counter; PerkinElmer). Concentration of nitrites released in the medium was determined from the standard curve generated with known concentrations of sodium nitrite. Results are expressed as mean concentration of nitrites (μM) ± SEM, from three different samples.

SMILES: CCn1c(-c2ccco2)nc2c(N)nc(NCCc3ccc(O)cc3)nc21 [compound 13, 4-(2-((6-Amino-9-ethyl-8-(furan-2-yl)-9H-purin-2-yl)amino)ethyl)phenol]
- NO level in culture medium vs LPS treated cells (1 nM compound): significantly reduced the NO level
- NO level in culture medium vs LPS treated cells (10 nM compound): significantly reduced the NO level
